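Assay format: 96-well plates, 48-hour exposure. GI50 = concentration required for 50% inhibition of growth.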 Calls of active or inactive are those of the source. No stated cut-off is given here; in the data, active = GI50 up to about 1.1 µM and inactive = higher.

Test systems include Malme-3M; MDA-N; RPMI-8226; U-251; CAKI-1; UACC-257; NCI/ADR-RES; CCRF-CEM; DU-145; T47D; SK-MEL-28; LOX IMVI; TK-10; HCT-15; K562; HOP-62; COLO 205; SK-MEL-2; HL-60.
Common to all, as to assay: NCI-60 cell line screen, 48 h

Consider `N#CCCN(CCCN(CCCN(C(=O)Nc1ccccc1)c1ccccc1)C(=O)Nc1ccccc1)C(=O)Nc1ccccc1`, for which the GI50 with Malme-3M is > 8.75 µM (inactive); in the experiment on MDA-N it was > 8.75 µM (inactive); in the experiment with RPMI-8226, 3.44 µM (inactive); with U-251 it was > 100 µM (inactive); in the experiment with CAKI-1, > 8.75 µM (inactive); in the experiment with UACC-257 it was > 8.75 µM (inactive). The GI50 in the experiment on NCI/ADR-RES was > 8.75 µM (inactive); in the experiment on CCRF-CEM it was 6.14 µM (inactive); in the experiment with DU-145, > 8.75 µM (inactive); in the experiment with T47D it was > 8.75 µM (inactive); in the experiment with SK-MEL-28, > 8.75 µM (inactive); with LOX IMVI, > 100 µM (inactive). In addition, the GI50 was > 8.75 µM (inactive) in the experiment with TK-10; over 100 µM with HCT-15; > 8.75 µM (inactive) with K562; > 8.75 µM (inactive) in the experiment with HOP-62; > 8.75 µM (inactive) with COLO 205; > 8.75 µM (inactive) in the experiment on SK-MEL-2. Besides, in the experiment with HL-60, the GI50 is > 8.75 µM (inactive).

As to `O=C1C([N-]S(=O)(=O)c2ccccc2)=C([n+]2ccc(Cc3ccccc3)cc2)C(=O)c2ccccc21`, the GI50 is 0.376 µM (active) with Malme-3M; 0.191 µM (active) in the experiment on MDA-N; 1.65 µM (inactive) with RPMI-8226; 1.85 µM (inactive) with U-251; 1.73 µM (inactive) with CAKI-1; 1.22 µM (inactive) with UACC-257. Further, the GI50 in the experiment with NCI/ADR-RES is 2.83 µM (inactive); in the experiment with CCRF-CEM, 29.7 µM (inactive); in the experiment on DU-145, 1.53 µM (inactive); in the experiment on T47D, 3.46 µM (inactive); in the experiment on SK-MEL-28, 0.859 µM (active); in the experiment with LOX IMVI, 0.424 µM (active). Further, the GI50 with TK-10 is 1.66 µM (inactive); with HCT-15, 1.69 µM; in the experiment on K562, 0.359 µM (active); in the experiment with HOP-62, 1.75 µM (inactive); in the experiment on COLO 205 it was 0.0644 µM (active); in the experiment on SK-MEL-2 it was 1.5 µM (inactive). Moreover, the GI50 with HL-60 is 1.38 µM (inactive).

As for `CCOC(=O)c1nc2cc(C(F)(F)F)ccc2nc1Nc1ccc(Cl)c(Cl)c1`, the GI50 in the experiment with Malme-3M is > 100 µM (inactive); with MDA-N, > 100 µM (inactive); in the experiment with RPMI-8226, 33.4 µM (inactive); in the experiment on U-251, 53.6 µM (inactive); with CAKI-1 it was > 100 µM (inactive); with UACC-257, > 100 µM (inactive). Further, the GI50 in the experiment with NCI/ADR-RES is > 100 µM (inactive); in the experiment on CCRF-CEM it was 67.5 µM (inactive); in the experiment with DU-145, > 100 µM (inactive); in the experiment on T47D, > 100 µM (inactive); in the experiment on SK-MEL-28 it was > 100 µM (inactive); in the experiment with LOX IMVI it was > 100 µM (inactive). Moreover, the GI50 in the experiment on TK-10 is > 100 µM (inactive); in the experiment on HCT-15, over 100 µM; in the experiment on HOP-62, 76.6 µM (inactive); in the experiment with COLO 205, > 100 µM (inactive); in the experiment with SK-MEL-2, > 100 µM (inactive); with HL-60, 31.8 µM (inactive).

As to `Cn1c(-c2ccc[se]2)ccc1-c1ccc(CO)[se]1`, the GI50 with Malme-3M was 10.2 µM (inactive); in the experiment on MDA-N, 18 µM (inactive); with RPMI-8226, 1.28 µM (inactive); in the experiment on U-251 it was < 0.0129 µM (active); in the experiment with CAKI-1 it was < 0.01 µM (active); with UACC-257 it was 0.0461 µM (active). Moreover, the GI50 with NCI/ADR-RES was 9.48 µM (inactive); with CCRF-CEM, 17.1 µM (inactive); in the experiment on DU-145, 35.9 µM (inactive); in the experiment on T47D, 0.0405 µM (active); in the experiment on SK-MEL-28, 52.8 µM (inactive); in the experiment with LOX IMVI, 21.8 µM (inactive). For the same compound, the GI50 with TK-10 is 0.0129 µM (active); in the experiment on HCT-15, 18.3 µM; in the experiment on K562 it was 0.159 µM (active); in the experiment on COLO 205, 0.367 µM (active); with SK-MEL-2 it was 34.7 µM (inactive); in the experiment on HL-60, 10 µM (inactive).

Regarding `C#C[C@]1(O)CC[C@H]2[C@@H]3CCC4=C/C(=N/NC(=O)c5cccc6c(=O)c7ccccc7[nH]c56)CCC4[C@H]3CC[C@@]21C` (stereo partly specified), the GI50 in the experiment with Malme-3M is 18 µM (inactive); with MDA-N it was 50.4 µM (inactive); in the experiment with RPMI-8226, 28.8 µM (inactive); with U-251 it was 29.8 µM (inactive); with CAKI-1, > 100 µM (inactive); in the experiment on UACC-257, 35.5 µM (inactive). Also, the GI50 in the experiment on NCI/ADR-RES was 55.5 µM (inactive); in the experiment with CCRF-CEM, 40.3 µM (inactive); with DU-145, > 100 µM (inactive); in the experiment on T47D, 30.8 µM (inactive); in the experiment on LOX IMVI, 58.1 µM (inactive); in the experiment with TK-10 it was 57.5 µM (inactive). For the same compound, the GI50 in the experiment on HCT-15 was 73.8 µM; in the experiment on K562, 73.5 µM (inactive); in the experiment with HOP-62, > 100 µM (inactive); in the experiment on COLO 205, 70 µM (inactive); in the experiment with SK-MEL-2 it was 33 µM (inactive); in the experiment with HL-60, 26.4 µM (inactive).

On to `O=C(/C=C/C=C/c1ccccc1)CCc1ccccc1`, for which the GI50 in the experiment with Malme-3M is > 100 µM (inactive); in the experiment with MDA-N it was > 100 µM (inactive); in the experiment with RPMI-8226 it was > 10 µM (inactive); with U-251, 61 µM (inactive); in the experiment with CAKI-1 it was > 100 µM (inactive); in the experiment with UACC-257, > 100 µM (inactive). The GI50 in the experiment on NCI/ADR-RES was 68.5 µM (inactive); in the experiment on CCRF-CEM it was 35.2 µM (inactive); in the experiment with DU-145, > 100 µM (inactive); with T47D, 53.3 µM (inactive); with SK-MEL-28 it was > 10 µM (inactive); in the experiment with LOX IMVI it was 79.4 µM (inactive). Further, the GI50 was > 100 µM (inactive) in the experiment on TK-10; 94.4 µM with HCT-15; > 100 µM (inactive) in the experiment with HOP-62; > 100 µM (inactive) with COLO 205; > 100 µM (inactive) in the experiment on SK-MEL-2; 23.4 µM (inactive) with HL-60.

Take `COc1ccc(/N=N/c2c(C)c(C#N)c(=S)n(C3OC(CO)C(O)C(O)C3O)c2C)cc1` (stereo unspecified): the GI50 in the experiment with MDA-N was 30.6 µM (inactive); in the experiment with RPMI-8226 it was 39.2 µM (inactive); in the experiment with U-251 it was 51.5 µM (inactive); in the experiment with CAKI-1 it was 56.2 µM (inactive); with UACC-257, 71.9 µM (inactive); with NCI/ADR-RES it was > 100 µM (inactive). In addition, the GI50 in the experiment with CCRF-CEM was 23.7 µM (inactive); in the experiment on DU-145, 44.7 µM (inactive); in the experiment on T47D, 28.6 µM (inactive); in the experiment on SK-MEL-28, 30.8 µM (inactive); in the experiment on LOX IMVI it was 56.4 µM (inactive); in the experiment on TK-10, 82 µM (inactive). Moreover, the GI50 with HCT-15 was 53.1 µM; in the experiment on K562 it was 29 µM (inactive); in the experiment on HOP-62, 42.3 µM (inactive); in the experiment with COLO 205, 58.3 µM (inactive); with SK-MEL-2 it was 71.3 µM (inactive); with HL-60, 38.3 µM (inactive).

`Cc1ccc([N+](=O)[O-])cc1S(=O)(=O)Nc1ccc(C2=NN(S(=O)(=O)c3cc([N+](=O)[O-])ccc3C)C(c3cccs3)C2)cc1` (stereo unspecified): the GI50 in the experiment on Malme-3M is 47.9 µM (inactive); with MDA-N it was 33.7 µM (inactive); in the experiment with RPMI-8226, 21.9 µM (inactive); with U-251 it was 30.1 µM (inactive); in the experiment with CAKI-1, 44.1 µM (inactive); in the experiment with UACC-257 it was 31.5 µM (inactive). The GI50 is 31.6 µM (inactive) with NCI/ADR-RES; 51.3 µM (inactive) in the experiment on DU-145; 21.5 µM (inactive) in the experiment with T47D; 65.8 µM (inactive) in the experiment with SK-MEL-28; 57 µM (inactive) with LOX IMVI; 38.6 µM (inactive) in the experiment on TK-10. In addition, the GI50 in the experiment on HCT-15 is 33.2 µM; in the experiment on K562 it was 24.2 µM (inactive); in the experiment on HOP-62 it was 30.1 µM (inactive); in the experiment with COLO 205 it was 9.59 µM (inactive); with SK-MEL-2, 25.3 µM (inactive); in the experiment on HL-60, 32.9 µM (inactive).
